According to patent publication US20200061215A1, “MALTOTRIOSE-BASED PROBES FOR FLUORESCENCE AND PHOTOACOUSTIC IMAGING OF BACTERIA” (The Board of Trustees of the Leland Stanford Junior …, priority 2018, published 2020):

Assays:
S. aureus-infected wound = assay: Fluorescence and bioluminescence imaging in S. aureus wound-infection murine model; assay type: in vivo, mice; details: treated group, vancomycin for 7 days
Protocol: Female CD1 or SKH1 elite mice, 6-8 weeks old were anesthetized by isoflurane inhalation (2-3%). A small wound on the upper or lower back of the mice was formed using a sharp pair of scissors. 10^8 CFU, 10^6 CFU, or 10^4 CFU Staphylococcus aureus in 20 μL saline was inoculated into a small pocket subcutaneously before sealing the wound with Vetbond adhesive (1469SB; 3M).
After subcutaneous inoculation of 10^8 CFU (n=5), 10^6 CFU (n=3) and 10^4 CFU (n=3) of S. aureus in the wound, Cy7-1-maltotriose (5 nmol in 2% DMSO/saline, 100 μL injection) was injected via the tail vein. To insure no other infections occur, a daily dose of kanamycin (800 mg/kg) was given to the mice intramuscularly. Fluorescence and bioluminescence images were then captured at 5 and 20 hr post injection of the probe. Image analysis was conducted using Living Image® software.
Fluorescence and Bioluminescence Imaging: After subcutaneous inoculation of 10^6 CFU (n=9) of kanamycin-resistant S. aureus in the wound, mice were administered kanamycin (800 mg/kg) intramuscularly once daily to insure no other bacterial infections occur. Two days after surgery, Cy7-1-maltotriose (10 nmol in 2% DMSO/saline, 200 μL injection) was injected via the tail vein and bioluminescence and fluorescence imaging were performed at 19, 45, 69, 93 and 144 hrs post injection. […]

E. coli = assay: Bacteria competition assay with 3H-maltose; assay type: cell-based; details: test compound 1 mM, 1 hr at 37° C., then 3H-maltose 30 min
Protocol: A competition binding assay between the synthesized derivatives and ^3H-maltose that is taken up in bacteria by the ABC transporter, was conducted.
Aliquots of 10^8 colony forming units (CFU) of E. coli were first incubated with test compounds (1 mM) for 1 hr at 37° C. After the first incubation, the bacteria culture was centrifuged at 10,000 rpm for 5 min and pellet washed with 1×HBSS three times. Pellets were suspended in a solution of ^3H-maltose (1 μCi in 200 μL HBSS (1×); American Radiolabeled Chemicals, Inc., USA) and incubated for 30 min at 37° C. Aliquots were centrifuged and washed with 1×HBSS three times before lysing in a bacterial lysis buffer (BugBuster, EMD, Billerica Mass. USA). Activity in bacteria lysates was then counted in a […] and protein concentration determined using a bicinchoninic acid (BCA) assay (Pierce, Thermo Fisher Scientific). Test compounds included maltose as a positive control, azide-1-maltotriose/maltohexose and Cy7-1-maltotriose/maltohexose. In addition, aliquots incubated with only ^3H-maltose were also included to assess normal uptake. Results are shown as counts per minute (cpm) normalized to protein content (μg of protein) per sample (n=3 per study).

Stability in PBS = assay type: physicochemical; details: 37° C., up to 24 hr
Protocol: Compound 3a or 3b (100 μM) was incubated in either PBS (1×), murine, human, or rat plasma at 37° C. for up to 24 h. At each time point (0, 2, 4, 10 and 24 h), a 100 μL aliquot of the mixture was taken and added to an ice-cold acetonitrile solution (200 μL) and vortexed for 10 seconds. Samples were then centrifuged and the supernatant analyzed on the analytical HPLC column (HPLC method). […] Monitoring was at 750 nm and the area of any observed peak was assessed in each HPLC chromatogram. Bar plot representation of the compound stability is shown as % intact where

[1] = Plasma stability, human plasma; assay type: in vitro ADME; details: 37° C.
Protocol: Samples were then centrifuged and the supernatant analyzed on the analytical HPLC column (HPLC method). […] Monitoring was at 750 nm and the area of any observed peak was assessed in each HPLC chromatogram.

Compound | S. aureus infection in wound after treatment (FLI image, confirmed by BLI) (S. aureus-infected wound) | 3H-maltose uptake in E. coli when pre-incubated with test compound (E. coli) | stability in PBS (Stability in PBS) | degradation in human plasma [1]
CN[C@H](CC(C)C)C(=O)N[C@H]1C(=O)N[C@@H](CC(N)=O)C(=O)N[C@H]2C(=O)N[C@H]3C(=O)N[C@H](C(=O)N[C@H](C(=O)O)c4cc(O)cc(O)c4-c4cc3ccc4O)[C@H](O)c3ccc(c(Cl)c3)Oc3cc2cc(c3O[C@@H]2O[C@H](CO)[C@@H](O)[C@H](O)[C@H]2O[C@H]2C[C@](C)(N)[C@H](O)[C@H](C)O2)Oc2ccc(cc2Cl)[C@H]1O [vancomycin] | complete disappearance of S. aureus infection |  |  | 
OC[C@H]1O[C@H](O[C@H]2[C@H](O)[C@@H](O)C(O)O[C@@H]2CO)[C@H](O)[C@@H](O)[C@@H]1O (mixture of isomers) [maltose] |  | significant reduction |  | 
OC[C@H]1O[C@H](O[C@H]2[C@H](O)[C@@H](O)[C@@H](O[C@H]3[C@H](O)[C@@H](O)[C@@H](O[C@H]4[C@H](O)[C@@H](O)[C@@H](O[C@H]5[C@H](O)[C@@H](O)[C@@H](O[C@H]6[C@H](O)[C@@H](O)C(O)O[C@@H]6CO)O[C@@H]5CO)O[C@@H]4CO)O[C@@H]3CO)O[C@@H]2CO)[C@H](O)[C@@H](O)[C@@H]1O (stereo partly shown) [maltohexose] |  | significant reduction | stable | 
maltotriose |  | significant reduction | stable | no degradation
